Reference: article PMC12444563 (ACS Omega, 2025)
Starred links: 1 amine or outer side, 2 acyl side, 3 side chain; linkers in the order of their positions; H or OH if unused. Non-standard residues stand in square brackets, D forms with d. Residues, ends and D or L forms follow the SMILES beside them. *: point of attachment. Paclitaxel(2'-OCO-DMEDA) = CC(=O)O[C@H]1C(=O)[C@@]2(C)[C@H]([C@H](OC(=O)c3ccccc3)[C@]3(O)C[C@H](OC(=O)[C@H](OC(=O)N(C)CCN(C)*)[C@@H](NC(=O)c4ccccc4)c4ccccc4)C(C)=C1C3(C)C)[C@]1(OC(C)=O)CO[C@@H]1C[C@@H]2O; Fmoc = O=C(OCC1c2ccccc2-c2ccccc21)*; PABC = O=C(OCc1ccc(N[*:1])cc1)[*:2]

Experiments:
[1] = Plasma stability assay, rat plasma; type: in vitro ADME, rat (Sprague Dawley); conditions: Sprague Dawley, 37 °C, read-out: Plasma stability (matrix: rat) % remaining; for remaining at 0.5 h, 1 μM: 30 min; for remaining at 2 h, 1 μM: 120 min; for remaining at 4 h, 1 μM: 240 min (4 h)
Experimental: (§1) The plasma stability assays were performed by Selvita SA (Krakow, Poland) following the protocol described in the Supporting Information. For the use of human plasma, consent was obtained from the subject or from the next of kin.
(§2) 9. Plasma stability assays
(§3) Protocol for full plasma assay: a stock solution of compounds 1-4 in DMSO was incubated in human (Anticoagulants: Na Heparin; Gender: Pooled; Cat. No: IPLANAH100ML; Lot: 37921; Supplier:
(§4) Innovative Research) and rat (Strain: Sprague Dawley; Anticoagulants: Na Heparin; Cat. No:
(§5) IGRTSDPLANAH100ML; Supplier: Innovative Research) plasma at a final concentration of 1 μM (final concentration of DMSO = 1 %). The samples were incubated at 37 °C with a shaking of 450 rpm. Aliquots of the samples were analyzed at time 0, 30 minutes, 2 and 4 hours by LC-MS/MS […]
(§6) The areas of the peak of the compounds 1-4 in the LC chromatogram were used to evaluate stability profile. The percentage of residual compounds 1-4 was calculated as the ratio between the area of the peak of the analyte and the area of the internal standard.
(§7) % residual compound = Area analyte ∙ 100
(§8) Table S7. LC-MS data of the stability assays in plasma extracts of compound 1.
(§9) Stability assays compound 1
(§10) Time Plasma stability Plasma stability S9 stability S9 stability
(§11) (min.) (matrix: rat) (matrix: human) Time (min.) (matrix: rat) (matrix: human) % remaining % remaining % remaining % remaining
(§12) Table S8. LC-MS data of the stability assays in plasma extracts of compound 2.
(§13) Stability assays compound 2

[2] = Liver S9 fraction stability assay, rat; type: in vitro ADME; conditions: male, liver S9 fraction, 37 °C, read-out: S9 stability (matrix: rat) % remaining; for remaining at 0.5 h, 1 μM: 30 min; for remaining at 1.5 h, 1 μM: 90 min (1.5 h)
Experimental: as §1
(§14) 9. Plasma stability assays […]
(§15) Protocol for S9 fraction: a stock solution of compounds 1-4 in DMSO was incubated in human (male, pooled, commercially obtained from Xeno-tech lot: 2310104) and rat (male, pooled, commercially obtained from Xeno-tech (lot: 2210317)) S9 fraction at a final concentration of 1 μM (final concentration of DMSO = 0.5 %). The samples were incubated at 37 °C with a shaking of 450 rpm.
(§16) Aliquots of the samples were analyzed at time 0, 30 and 90 minutes by LC-MS/MS analysis.
as §6, §7, §8, §9, §10, §11, §12, §13

[3] = Liver S9 fraction stability assay, human; type: in vitro ADME; conditions: male, liver S9 fraction, 37 °C, read-out: S9 stability (matrix: human) % remaining; for remaining at 0.5 h, 1 μM: 30 min; for remaining at 1.5 h, 1 μM: 90 min (1.5 h)
Experimental: as §1, §14, §15, §16, §6, §7, §8, §9, §10, §11, §12, §13

[4] = Plasma stability assay, human plasma; type: in vitro ADME; conditions: both sexes, 37 °C, read-out: Plasma stability (matrix: human) % remaining; for remaining at 0.5 h, 1 μM: 30 min; for remaining at 2 h, 1 μM: 120 min; for remaining at 4 h, 1 μM: 240 min (4 h)
Experimental: as §1, §2, §3, §4, §5, §6, §7, §8, §9, §10, §11, §12, §13

[5] = target: T1, bovine spleen Cathepsin B (Bos taurus, UniProt P07688); assay: Cathepsin B cleavage assay (UHPLC-HRMS Orbitrap analysis); type: biochemical; conditions: for % residual compound, Average %: 37 °C, pH 5.4, 5 μM, triplicate
T1 construct: bovine spleen Cathepsin B (SigmaAldrich C6286, ≥10 units/mg protein); purchased SigmaAldrich C6286; host or cells: bovine spleen (tissue-derived)
Experimental: The Cathepsin B cleavage assay was performed by incubating compounds 1–4 at 37 °C under gently shaking conditions in the presence of the active form of Cathepsin B. More specifically, 122.4 μL of an enzyme-activating solution (composed of 7.48 mg of L-cysteine dissolved in 2 mL of a buffer solution containing 20 mM NaOAc, 1 mM EDTA, pH 5.4 to give a final cysteine concentration of 30.88 mM) was mixed with 12.6 μL of enzyme stock solution, previously prepared by solubilization of bovine spleen Cathepsin B (SigmaAldrich C6286, ≥10 units/mg protein) in 1 mL of buffer solution (without cysteine) to give a concentration of enzyme stock solution of 12 units/mL. After the dilution, the final concentration of Cathepsin B was 1.12 u/mL. Then, the diluted enzyme solution was incubated at 37 °C for 15 min to activate Cathepsin B. After 15 min, 6 μL of 117 μM compound solution, previously prepared by diluting 5.85 μL of 1 mM stock solution of the compound in 44.15 μL of dry DMSO (giving a 117 μM solution), was added to the test tube and the cleavage assay solution was incubated at 37 °C under gentle shaking conditions. […] The solutions were then centrifuged for 10 min at 6000 rpm. Blank solutions were prepared for each compound by dilution of 6 μL of a 117 μM compound solution into 135 μL of an enzyme-activating solution. UHPLC-MS analyses were carried out using a Vanquish UHPLC System (Thermo Fisher Scientific) and Orbitrap Exploris 120 (Thermo Fisher Scientific). Thermo Scientific Xcalibur software was used to control the instruments and acquire the data. Freestyle 1.8 software was used for processing the data. UHPLC chromatographic separations were performed on a reversed-phase column Accucore C18 50 × 2.1 mm, 2.6 μm (Thermo Fisher Scientific). A gradient system was used with the mobile phase consisting of solvent A: H2O + 0.05% formic acid and solvent B: acetonitrile. The areas of the peak of compounds 1–4 in the extracted ion chromatogram were used to evaluate the kinetics of the cleavage process. The percentage of residual compound was calculated as the ratio between the areas of the peak of the full compound at the desired time point and in the blank analysis. %Residualcompound=areacompoundatthedesiredtimepoint/areacompoundintheblanksolution×100

[6] = 2 min incubation with Cathepsin B
[7] = 15 min incubation with Cathepsin B
[8] = 30 min incubation with Cathepsin B
[9] = 60 min incubation with Cathepsin B
[10] = 120 min incubation with Cathepsin B

## CC(=O)O[C@H]1C(=O)[C@@]2(C)[C@H]([C@H](OC(=O)c3ccccc3)[C@]3(O)C[C@H](OC(=O)[C@H](OC(=O)N(C)CCN(C)C(=O)OCc4ccc(NC(=O)CNC(=O)[C@H](CC(C)C)NC(=O)[C@H](Cc5ccccc5)NC(=O)CNC(=O)OCC5c6ccccc6-c6ccccc65)cc4)[C@@H](NC(=O)c4ccccc4)c4ccccc4)C(C)=C1C3(C)C)[C@]1(OC(C)=O)CO[C@@H]1C[C@@H]2O [Compound 2, Fmoc-GFLG-PABC-diamine-PTX] (Fmoc-GFLG[PABC]-{Paclitaxel(2'-OCO-DMEDA)})
[1]; rat, plasma
  remaining at 0.5 h, 1 μM: 92.1%
  remaining at 2 h, 1 μM: 99%
  remaining at 4 h, 1 μM: 103%
[2]; rat
  remaining at 0.5 h, 1 μM: 72.8%
  remaining at 1.5 h, 1 μM: 61.8%
[3]; human
  remaining at 0.5 h, 1 μM: 133%
  remaining at 1.5 h, 1 μM: 95.2%
[4]; human, plasma
  remaining at 0.5 h, 1 μM: 102%
  remaining at 2 h, 1 μM: 104%
  remaining at 4 h, 1 μM: 93.9%
[5]; [6]
  % residual compound, Average %: 99.63%
[5]; [7]
  % residual compound, Average %: 98.45%
[5]; [8]
  % residual compound, Average %: 95.35%
[5]; [9]
  % residual compound, Average %: 95.89%
[5]; [10]
  % residual compound, Average %: 94.14%
[5]; replicate R1, 2 min
  % residual compound, % R1: 99.33%
[5]; replicate R1, 15 min
  % residual compound, % R1: 98.52%
[5]; replicate R1, 30 min
  % residual compound, % R1: 92.26%
[5]; replicate R1, 60 min
  % residual compound, % R1: 92.45%
[5]; replicate R1, 120 min
  % residual compound, % R1: 99.27%
[5]; replicate R1, 240 min
  % residual compound, % R1: 96.36%
[5]; replicate R3, 2 min
  % residual compound, % R3: 104.39%
[5]; replicate R3, 15 min
  % residual compound, % R3: 102.02%
[5]; replicate R3, 30 min
  % residual compound, % R3: 95.37%
[5]; replicate R3, 60 min
  % residual compound, % R3: 97.64%
[5]; replicate R3, 120 min
  % residual compound, % R3: 90.86%
[5]; replicate R3, 240 min
  % residual compound, % R3: 89.52%

## CC(=O)O[C@H]1C(=O)[C@@]2(C)[C@H]([C@H](OC(=O)c3ccccc3)[C@]3(O)C[C@H](OC(=O)[C@H](OC(=O)N(C)CCN(C)C(=O)OCc4ccc(NC(=O)[C@H](CCCNC(N)=O)NC(=O)[C@@H](NC(=O)OCC5c6ccccc6-c6ccccc65)C(C)C)cc4)[C@@H](NC(=O)c4ccccc4)c4ccccc4)C(C)=C1C3(C)C)[C@]1(OC(C)=O)CO[C@@H]1C[C@@H]2O [Compound 3, Fmoc-VCit-PABC-diamine-PTX]
[1]
  remaining at 0.5 h, 1 μM: 123%
  remaining at 2 h, 1 μM: 113%
  remaining at 4 h, 1 μM: 118%
[2]
  remaining at 0.5 h, 1 μM: 86.5%
  remaining at 1.5 h, 1 μM: 42.6%
[3]
  remaining at 0.5 h, 1 μM: 133%
  remaining at 1.5 h, 1 μM: 95.2%
[4]
  remaining at 0.5 h, 1 μM: 102%
  remaining at 2 h, 1 μM: 98.3%
  remaining at 4 h, 1 μM: 77.1%
[5]; [6]
  % residual compound, Average %: 99.48%
[5]; [7]
  % residual compound, Average %: 89.60%
[5]; [8]
  % residual compound, Average %: 88.90%
[5]; [9]
  % residual compound, Average %: 82.88%
[5]; [10]
  % residual compound, Average %: 80.39%
[5]; 240 min (4 h) incubation with Cathepsin B
  % residual compound, Average %: 76%
[5]; replicate R1, 2 min
  % residual compound, % R1: 91.44%
[5]; replicate R1, 15 min
  % residual compound, % R1: 87.83%
[5]; replicate R1, 30 min
  % residual compound, % R1: 70.58%
[5]; replicate R1, 60 min
  % residual compound, % R1: 80.56%
[5]; replicate R1, 120 min
  % residual compound, % R1: 76.58%
[5]; replicate R1, 240 min
  % residual compound, % R1: 81.21%
[5]; replicate R3, 2 min
  % residual compound, % R3: 106.03%
[5]; replicate R3, 15 min
  % residual compound, % R3: 90.55%
[5]; replicate R3, 30 min
  % residual compound, % R3: 97.99%
[5]; replicate R3, 60 min
  % residual compound, % R3: 89.93%
[5]; replicate R3, 120 min
  % residual compound, % R3: 81.32%
[5]; replicate R3, 240 min
  % residual compound, % R3: 71.70%
